In patent US4450234A, “Antibiotic C-15003 PHM and production thereof” (Takeda Chemical Industries, Ltd., priority 1979, dated 1984):
≈ marks a conversion by molar mass, not a printed value.

Experiments:
[1] = Neutral lipophilic character; assay type: physicochemical
Mycobacterium avium = experiment: Antibacterial activity, paper disk method; assay type: cell-based; settings: paper disk 8 mm, 0.02 ml of 300 μg/ml solution, Trypticase-soy-agar
Protocol: (§1) Using Trypticase-soy-agar (Baltimore Biologicals, U.S.A.) as the assay medium, the growth inhibitory concentrations of the compound against the various microorganisms named hereinbelow were determined by the paperdisk method. Thus, on plate media containing the following microorganisms, respectively, minimal inhibitory concentrations were determined using paper disks imbibed with 0.02 ml of a 300 μg/ml solution of PHM-3 or PHM-4 (disks, Toyo Seisakusho, Japan, thin-type, diam. 8 mm).
(§2) Escherichia coli, Proteus vulgaris, Proteus mirabilis, Pseudomonas aeruginosa, Staphylococcus aureus, Bacillus subtilis, Bacillus cereus, Klebsiella pneumoniae, Serratia marcessence, Mycobacterium avium.
(§3) Using Trypticase-soy-agar (Baltimore Biologicals, U.S.A.) as the test medium, the growth inhibitory activity of the compound against the organisms named below was assayed by the paper disk method. Thus, on the plate media each containing one of the undermentioned organisms, the activity of the compound was tested using paper disks (Toyo Seisakusho, Japan, thin type, diam. 8 mm) imbibed with 0.02 ml of a 300 μg/ml solution of PHM-3-acetate.
(§4) Escherichia coli, Proteus vulgaris, Proteus mirabilis, Pseudomonas aeruginosa, Staphylococcus aureus, Bacillus subtilis, Bacillus cereus, Klebsiella pneumoniae, Serratia marcescence, Mycobacterium avium.

Serratia marcessence = experiment: Antibacterial activity, paper disk method; assay type: cell-based; settings: paper disk 8 mm, 0.02 ml of 300 μg/ml solution, Trypticase-soy-agar
Protocol: as §1, §2, §3, §4

Bacillus cereus = experiment: Antibacterial activity, paper disk method; assay type: cell-based; settings: paper disk 8 mm, 0.02 ml of 300 μg/ml solution, Trypticase-soy-agar
Protocol: as §1, §2, §3, §4

Pseudomonas aeruginosa = experiment: Antibacterial activity, paper disk method; assay type: cell-based; settings: paper disk 8 mm, 0.02 ml of 300 μg/ml solution, Trypticase-soy-agar
Protocol: as §1, §2, §3, §4

Proteus vulgaris = experiment: Antibacterial activity, paper disk method; assay type: cell-based; settings: paper disk 8 mm, 0.02 ml of 300 μg/ml solution, Trypticase-soy-agar
Protocol: as §1, §2, §3, §4

Staphylococcus aureus = experiment: Antibacterial activity, paper disk method; assay type: cell-based; settings: paper disk 8 mm, 0.02 ml of 300 μg/ml solution, Trypticase-soy-agar
Protocol: as §1, §2, §3, §4

Klebsiella pneumoniae = experiment: Antibacterial activity, paper disk method; assay type: cell-based; settings: paper disk 8 mm, 0.02 ml of 300 μg/ml solution, Trypticase-soy-agar
Protocol: as §1, §2, §3, §4

Proteus mirabilis = experiment: Antibacterial activity, paper disk method; assay type: cell-based; settings: paper disk 8 mm, 0.02 ml of 300 μg/ml solution, Trypticase-soy-agar
Protocol: as §1, §2, §3, §4

Escherichia coli = experiment: Antibacterial activity, paper disk method; assay type: cell-based; settings: paper disk 8 mm, 0.02 ml of 300 μg/ml solution, Trypticase-soy-agar
Protocol: as §1, §2, §3, §4

Bacillus subtilis = experiment: Antibacterial activity, paper disk method; assay type: cell-based; settings: paper disk 8 mm, 0.02 ml of 300 μg/ml solution, Trypticase-soy-agar
Protocol: as §1, §2, §3, §4

Tetrahymena pyriformis W = experiment: Antiprotozoan growth inhibition, serial broth dilution method; assay type: cell-based; settings: 44 h, 28° C., 44 to 48 hours, pH 7.0, serial broth dilution, read-out: growth inhibitory concentration
Protocol: In addition, using Tetrahymena pyriformis W strain as the test organism and the assay medium composed of 20 g proteose peptone (Difco, U.S.A.), 1 g yeast extract, 2 g glucose, 1000 ml distilled water and 10 ml 1 M phosphate buffer, pH 7.0, cultivation was carried out at 28° C. for 44 to 48 hours and the growth inhibitory concentration of the antibiotic was determined by the serial broth dilution method.
Tetrahymena pyriformis W, as the test organism, was cultivated on an assay medium [20 g of proteose-peptone (Difco, U.S.A.), 1 g of yeast extract, 2 g of glucose, 1000 ml of distilled water, 10 ml of 1 M phosphate buffer, pH 7.0] at 28° C. for 44 to 48 hours and the growth inhibitory activity of the compound against the above-mentioned strain was assayed by the serial dilution method.

Nocardia sp. No. N-1231 = experiment: Antibiotic resistance of No. N-1231 strain; assay type: cell-based

Compound | neutral lipophilic / fat-soluble character [1] | activity (growth inhibition) (Mycobacterium avium) | activity (growth inhibition) (Serratia marcessence) | activity (growth inhibition) (Bacillus cereus) | activity (growth inhibition) (Pseudomonas aeruginosa) | activity (growth inhibition) (Proteus vulgaris) | activity (growth inhibition) (Staphylococcus aureus) | activity (growth inhibition) (Klebsiella pneumoniae) | activity (growth inhibition) (Proteus mirabilis) | activity (growth inhibition) (Escherichia coli) | activity (growth inhibition) (Bacillus subtilis) | MIC (Tetrahymena pyriformis W) | resistance of No. N-1231 strain (Nocardia sp. No. N-1231)
COc1cc2cc(c1Cl)N(C)C(=O)CC(OC(C)=O)C1(C)OC1C(C)C1CC(O)(NC(=O)O1)C(OC)C=CC=C(C)C2 (stereo not drawn) [P-1, maytanacine] | neutral lipophilic |  |  |  |  |  |  |  |  |  |  |  | 
COc1cc2cc(c1Cl)N(C)C(=O)CC(O)C1(C)OC1C(C)C1CC(O)(NC(=O)O1)C(OC)/C=C/C=C(\C)C2 (stereo not drawn) [P-0, maytansinol] | neutral lipophilic |  |  |  |  |  |  |  |  |  |  |  | 
COc1cc2cc(c1Cl)N(C)C(=O)CC(OC(=O)C(C)C)C1(C)OC1C(C)C1CC(O)(NC(=O)O1)C(OC)C=CC=C(CO)C2 (stereo not drawn) [PHM-3] |  | no activity | no activity | no activity | no activity | no activity | no activity | no activity | no activity | no activity | no activity | 40 µg/mL (≈ 61.4 µM) | 
[H]/N=C(/N)N[C@H]1[C@H](O)[C@@H](O)[C@H](O[C@@H]2O[C@@H](C)[C@](O)(C=O)[C@H]2O[C@@H]2O[C@@H](CO)[C@H](O)[C@@H](O)[C@@H]2NC)[C@@H](N/C(N)=N\[H])[C@@H]1O [streptomycin] |  |  |  |  |  |  |  |  |  |  |  |  | resistant
COc1cc2cc(c1Cl)N(C)C(=O)CC(OC(=O)CC(C)C)C1(C)OC1C(C)C1CC(O)(NC(=O)O1)C(OC)C=CC=C(CO)C2 (stereo not drawn) [PHM-4] |  | no activity | no activity | no activity | no activity | no activity | no activity | no activity | no activity | no activity | no activity | 40 µg/mL (≈ 60.1 µM) | 
COc1cc2cc(c1Cl)N(C)C(=O)CC(OC(=O)C(C)C)C1(C)OC1C(C)C1CC(O)(NC(=O)O1)C(OC)C=CC=C(COC(C)=O)C2 (stereo not drawn) [PHM-3-acetate] |  | failed to show activity | failed to show activity | failed to show activity | failed to show activity | failed to show activity | failed to show activity | failed to show activity | failed to show activity | failed to show activity | failed to show activity | 8 µg/mL (≈ 11.5 µM) | 
CCC(=O)OC1CC(=O)N(C)c2cc(cc(OC)c2Cl)CC(C)=CC=CC(OC)C2(O)CC(OC(=O)N2)C(C)C2OC12C (stereo not drawn) [P-2, maytansinol propionate] | neutral lipophilic |  |  |  |  |  |  |  |  |  |  |  | 
CCC[C@@H]1C[C@@H](C(=O)N[C@@H]([C@H]2O[C@H](SC)[C@H](O)[C@@H](O)[C@H]2O)[C@@H](C)O)N(C)C1 [lincomycin] |  |  |  |  |  |  |  |  |  |  |  |  | resistant
CC1(C)S[C@@H]2[C@H](NC(=O)Cc3ccccc3)C(=O)N2[C@H]1C(=O)O [penicillin G] |  |  |  |  |  |  |  |  |  |  |  |  | resistant
